Here are results for 53 molecules from ChEMBL document CHEMBL2163249, “Exploration of natural compounds as sources of new bifunctional scaffolds targeting cholinesterases and beta amyloid aggregation: the case of chelerythrine” (Bioorg Med Chem, 2012).

Assay [1] concerns the target Acetylcholinesterase (Electrophorus electricus) (UniProt O42275). The note with it: at 2 mg/mL.
Description: Inhibition of electric eel AChE at 2 mg/ml by Ellman's method
Assay [2] concerns the target Cholinesterase (Equus caballus) (UniProt P81908). Conditions: at 2 mg/mL.
Description: Inhibition of horse BChE at 2 mg/ml by Ellman's method

Starred links: 1 amine or outer side, 2 acyl side, 3 side chain; linkers in the order of their positions; H or OH if unused. Positions of bridges follow the written chain, without caps; N, C: chain ends. Non-standard residues stand in square brackets, D forms with d. Residues, ends and D or L forms follow the SMILES beside them. Chains are numbered I, II in the order given. Actinocin(9to1) = Cc1c2oc3c(C)ccc(C(=O)[*:1])c3nc-2c(C(=O)[*:2])c(N)c1=O; NMeV = CN[C@H](C(=O)O)C(C)C; Sar = CNCC(=O)O

Cholinesterase (Equus caballus), sequence (P81908 whole entry): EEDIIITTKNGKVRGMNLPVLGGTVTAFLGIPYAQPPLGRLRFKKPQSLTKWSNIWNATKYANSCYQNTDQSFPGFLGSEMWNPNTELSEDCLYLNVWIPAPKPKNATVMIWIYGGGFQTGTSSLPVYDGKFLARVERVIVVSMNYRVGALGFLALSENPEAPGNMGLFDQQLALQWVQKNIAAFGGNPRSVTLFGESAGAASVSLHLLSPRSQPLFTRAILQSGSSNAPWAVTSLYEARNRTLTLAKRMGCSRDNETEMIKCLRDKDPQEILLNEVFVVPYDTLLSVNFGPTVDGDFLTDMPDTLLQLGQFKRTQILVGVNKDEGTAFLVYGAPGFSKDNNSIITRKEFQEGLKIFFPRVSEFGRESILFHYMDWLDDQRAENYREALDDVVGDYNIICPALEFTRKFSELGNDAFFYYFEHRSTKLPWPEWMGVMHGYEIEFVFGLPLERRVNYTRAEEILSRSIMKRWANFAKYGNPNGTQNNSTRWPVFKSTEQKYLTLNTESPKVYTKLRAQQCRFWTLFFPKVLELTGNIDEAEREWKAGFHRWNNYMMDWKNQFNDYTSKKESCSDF
Acetylcholinesterase (Electrophorus electricus), sequence (O42275 24-633 limits assumed): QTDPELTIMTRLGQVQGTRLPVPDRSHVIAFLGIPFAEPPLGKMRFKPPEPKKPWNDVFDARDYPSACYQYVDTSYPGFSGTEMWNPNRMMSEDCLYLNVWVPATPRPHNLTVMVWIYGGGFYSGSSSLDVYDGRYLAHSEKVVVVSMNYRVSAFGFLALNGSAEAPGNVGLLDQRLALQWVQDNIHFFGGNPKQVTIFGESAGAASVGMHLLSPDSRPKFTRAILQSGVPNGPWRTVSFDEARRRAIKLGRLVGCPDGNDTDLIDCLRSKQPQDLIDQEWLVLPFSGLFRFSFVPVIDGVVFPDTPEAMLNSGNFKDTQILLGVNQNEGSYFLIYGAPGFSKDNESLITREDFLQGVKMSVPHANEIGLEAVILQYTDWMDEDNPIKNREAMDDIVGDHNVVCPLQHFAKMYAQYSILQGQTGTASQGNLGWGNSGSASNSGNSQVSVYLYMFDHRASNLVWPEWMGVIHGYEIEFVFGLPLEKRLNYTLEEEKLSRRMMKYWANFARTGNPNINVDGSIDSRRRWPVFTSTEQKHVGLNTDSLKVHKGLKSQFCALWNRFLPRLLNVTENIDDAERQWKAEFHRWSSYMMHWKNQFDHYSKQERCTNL

Take `C[C@]12CC[C@H](O)C[C@H]1CC[C@@H]1[C@@H]2CC[C@]2(C)[C@@H](C3=CC(=O)OC3)[C@@H](O)C[C@]12O`: the inhibition in assay [1] is -1.84%; in assay [2], 1.77%.
Taken in the same sequence, the figures for `Cc1cccc2c3c(ccc12)C1=C(C(=O)C3=O)[C@@H](C)CO1` were 3.53% and -3.19%.
For `C[C@@]1(CO)[C@H](O)CC[C@@]2(C)[C@H]1CC[C@H]1C[C@@H]3C[C@@]12CC[C@]3(O)CO`, in that order: 8.45% and 13.5%.
For `COc1cc([C@@H]2c3cc4c(cc3[C@@H](O)[C@H]3COC(=O)[C@H]23)OCO4)cc(OC)c1O`, in that order: 6.34% and -7.02%.
As to `C[C@@H]1O[C@@H](Oc2c(-c3ccc(O)c(O)c3)oc3cc(O)cc(O)c3c2=O)[C@H](O)[C@H](O)[C@H]1O`, the figures for the inhibition in assay [1] and in assay [2] were 0.25% and -6.56%, respectively.
Regarding `O=c1c(O)c(-c2ccc(O)c(O)c2)oc2cc(O)cc(O)c12`, the inhibition was found to be 18.1% in assay [1] and 6.73% in assay [2].
For `COc1ccc2c3c4n(c2c1)[C@H](C=C(C)C)OOC(C)(C)C[C@@H]4N1C(=O)[C@@H]2CCCN2C(=O)[C@]1(O)[C@H]3O`, in that order: 1.5% and 18%.
Taken in the same sequence, the figures for `O=C1Nc2ccccc2/C1=C1/Nc2ccccc2C1=O` were 7.97% and 13.7%.
Taken in the same sequence, the figures for `C[C@@H]1O[C@@H](O[C@H]2[C@H](Oc3cc(O)c4c(c3)O[C@H](c3ccc(O)cc3)CC4=O)O[C@H](CO)[C@@H](O)[C@@H]2O)[C@H](O)[C@H](O)[C@H]1O` were -3.38% and -5.49%.
`Cc1nccc2c1[nH]c1cc(O)ccc12`: the results for the inhibition in assay [1] and in assay [2] were 46.1% and 35.9%, respectively.
Taken in the same sequence, the figures for `O=c1cc(-c2ccc(O)c(O)c2)oc2cc(O)c([C@@H]3O[C@H](CO)[C@@H](O)[C@H](O)[C@H]3O)c(O)c12` were 23.9% and -4.72%.
Turning to `CO[C@H]1C[C@H](O[C@H]2[C@H](C)[C@@H](O[C@@H]3O[C@H](C)C[C@H](N(C)C)[C@H]3OC(C)=O)[C@@H](C)C[C@@]3(CO3)C(=O)[C@H](C)[C@@H](OC(C)=O)[C@@H](C)[C@@H](C)OC(=O)[C@@H]2C)O[C@@H](C)[C@@H]1OC(C)=O`, the values for the inhibition in assay [1] and in assay [2] were 14.8% and -1.09%, respectively.
Taken in the same sequence, the figures for `C[C@@H]1O[C@@H](O[C@H]2C(Oc3cc(O)c4c(=O)c(O)c(-c5ccc(O)cc5)oc4c3)O[C@H](CO)[C@@H](O)[C@@H]2O)[C@H](O)[C@H](O)[C@H]1O` (stereo partly specified) were 24.5% and -4.78%.
For `CN1C(=O)C[C@H](C(=O)O)[C@H]1c1cccnc1` (relative stereo), in that order: -2.93% and -4.39%.
Taken in the same sequence, the figures for `CC(=O)O[C@@H]1CC[C@@]2(C)[C@H](C1)[C@H](OC(C)=O)C[C@@H]1[C@@H]2C[C@H]2[C@@H]3CN4C[C@H](C)CC[C@H]4[C@H](C)[C@H]3CC[C@@]12O` were 26.8% and 4.14%.
For the molecule `C=C1[C@H]2C[C@@]3([C@@H]1O)[C@@H](CC2=O)[C@]12[C@@H]4C[C@H]3[C@H]1N(CC)C[C@]4(C)CC[C@@H]2O`, the inhibition in assay [1] was found to be 26.3%; in assay [2], 1.01%.
Taken in the same sequence, the figures for `O=c1c(O[C@@H]2O[C@H](CO)[C@@H](O)[C@H](O)[C@H]2O)c(-c2ccc(O)c(O)c2)oc2cc(O)cc(O)c12` were 0.12% and 2.54%.
Take `CCN1C[C@]2(COC)CC[C@H](OC)[C@]34C1[C@H]([C@H](OC)[C@H]23)[C@@]1(OC(C)=O)C[C@H](OC)[C@@]2(O)C[C@@H]4[C@@H]1[C@H]2C(=O)c1ccc(OC)cc1`: the inhibition in assay [1] was determined as 3.52%; in assay [2] it was 9.36%.
For `CCCCC[C@H](O)CC(=O)CCc1ccc(O)c(OC)c1`, in that order: 1.06% and -2.06%.
For `O=c1cc(-c2ccccc2)oc2cc(O)ccc12`, in that order: 24.4% and -0.25%.
Taken in the same sequence, the figures for `CC(C)[C@H]1C(=O)O[C@@H]2CCN3CC=C(COC(=O)[C@](C)(O)[C@]1(C)O)[C@H]23` were 24.2% and 3.04%.
With `COc1cc2c3cc1Oc1cc(ccc1O)C[C@@H]1c4c(cc(OC)c(O)c4Oc4ccc(cc4)C[C@@H]3N(C)CC2)CC[N+]1(C)C`, the inhibition in assay [1] is 5.5%; in assay [2], 3.03%.
For `N[C@@H](Cn1ccc(=O)c(O)c1)C(=O)O`, in that order: 7.74% and 11.2%.
Taken in the same sequence, the figures for `O=C(O)c1cc(N(Cc2ccccc2O)Cc2cc(O)ccc2O)ccc1O` were 2.35% and 17.7%.
For `O=C1C[C@@H](c2ccc(O)c(O)c2)Oc2c1ccc(O[C@@H]1O[C@H](CO)[C@@H](O)[C@H](O)[C@H]1O)c2O`, the inhibition in assay [1] was 8.08%; in assay [2], 3.1%.
For `OC[C@@H]1CCCN2CCCC[C@H]12`, in that order: 1.61% and -7.44%.
For `OCc1c[nH]c2ccccc12`, in that order: -4.82% and 9.11%.
Taken in the same sequence, the figures for `CC1=C2C(=CO[C@H](C)[C@H]2C)C(O)=C(C(=O)O)C1=O` were 3.11% and 11.3%.
On to `C[C@@]12CCc3occc3[C@H]1CC[C@]13CC(=O)[C@H](CC[C@H]12)C3`, for which the inhibition is -5.73% in assay [1] and -0.09% in assay [2].
Consider `C[C@H]1COC2=C1C(=O)C(=O)c1c2ccc2c1CCCC2(C)C`, for which the inhibition is 3.33% in assay [1] and 12.1% in assay [2].
Consider `COc1cc(C(=O)OC2CC3CCC(C2)N3C)ccc1O` (stereo unspecified), for which the inhibition is 31.5% in assay [1] and 6.73% in assay [2].
Taken in the same sequence, the figures for `CCCCC[C@H](O)/C=C/[C@H]1[C@H](O)CC(=O)[C@@H]1CCCCCCC(=O)O` were 16.6% and -1.69%.
Taken in the same sequence, the figures for `COc1cc(-c2oc3cc(O)cc(O)c3c(=O)c2O)ccc1O` were 5.76% and -2.06%.
For `O=C(/C=C/C=C/c1ccc2c(c1)OCO2)N1CCCCC1`, in that order: -0.1% and 16.8%.
With `CC(=O)N[C@H]1CN2CC[C@H](O)[C@@H]2[C@@H](O)[C@@H]1O`, the inhibition was 2.39% in assay [1] and 9.19% in assay [2].
Taken in the same sequence, the figures for `CCOC(=O)[C@H]1O[C@@H]1C(=O)N[C@@H](CC(C)C)C(=O)NCCC(C)C` were 1.24% and -0.73%.
For `C[C@@H]1O[C@@H](OC[C@H]2O[C@@H](Oc3c(-c4ccc(O)c(O)c4)oc4cc(O)cc(O)c4c3=O)[C@H](O)[C@@H](O)[C@@H]2O)[C@H](O)[C@H](O)[C@H]1O`, in that order: -0.25% and 4.32%.
For `Cc1c2oc3c(C)ccc(C(=O)N[C@@H]4C(=O)N[C@H](C(C)C)C(=O)N5CCC[C@H]5C(=O)N(C)CC(=O)N(C)[C@@H](C(C)C)C(=O)O[C@@H]4C)c3nc-2c(C(=O)N[C@@H]2C(=O)N[C@H](C(C)C)C(=O)N3CCC[C@H]3C(=O)N(C)CC(=O)N(C)[C@@H](C(C)C)C(=O)O[C@@H]2C)c(N)c1=O` (I: T[dV]P[Sar][NMeV] / II: T[dV]P[Sar][NMeV]; ester I:1-I:C, II:1-II:C; linker I:N-II:N via Actinocin(9to1)), in that order: -2.56% and 3.31%.
With `C1CCN2C[C@@H]3C[C@@H](CN4CCCC[C@@H]34)[C@H]2C1`, the figures for the inhibition in assay [1] and in assay [2] were 4.72% and 5.31%, respectively.
For `CC(C)(O)CC[C@@H](O)[C@](C)(O)[C@H]1CC[C@@]2(O)C3=CC(=O)[C@@H]4C[C@@H](O)[C@@H](O)C[C@]4(C)[C@H]3CC[C@]12C`, in that order: 3.26% and -3.01%.
For `O=c1c(O)c(-c2ccccc2O)oc2cc(O)cc(O)c12`, in that order: 23% and 1.68%.
Taken in the same sequence, the figures for `Cc1nccc2c1[nH]c1ccccc12` were 22.2% and 39.4%.
For `CC[C@@H](C)C(=O)O[C@H]1[C@H](O)[C@H]2[C@@H](CN3C[C@@H](C)CC[C@H]3[C@@]2(C)O)[C@@H]2C[C@]34O[C@]5(O)[C@@H](OC(=O)[C@](C)(O)[C@@H](C)O)CC[C@@]3(C)[C@@H]5[C@@H](OC(C)=O)[C@@H](OC(C)=O)[C@H]4[C@@]21O`, the inhibition in assay [1] is -5.22%; in assay [2], -0.35%.
Taken in the same sequence, the figures for `C[C@@H]1O[C@@H](O[C@H]2C[C@@H](O)[C@]3(CO)[C@H]4[C@H](O)C[C@]5(C)[C@@H](C6=CC(=O)OC6)CC[C@]5(O)[C@@H]4CC[C@]3(O)C2)[C@H](O)[C@H](O)[C@H]1O` were -3.72% and 5.11%.
Regarding `COC(=O)[C@H]1[C@H]2C[C@@H]3c4[nH]c5cc(OC)ccc5c4CCN3C[C@H]2C[C@@H](OC(=O)c2cc(OC)c(OC)c(OC)c2)[C@@H]1OC`, the inhibition stood at 5.06% in assay [1] and 15.3% in assay [2].
Taken in the same sequence, the figures for `COC(=O)C1=CCCN(C)C1` were 16.9% and 0.29%.
For `O=c1cc(-c2ccc(O)c(OC3O[C@H](CO)[C@@H](O)[C@H](O)[C@H]3O)c2)oc2cc(OC3O[C@H](CO)[C@@H](O)[C@H](O)[C@H]3O)cc(O)c12` (stereo partly specified), in that order: 28.6% and -2.06%.
Taken in the same sequence, the figures for `COc1cc2c(c(OC)c1OC)-c1c(cc3c(c1O)OCO3)C[C@H](C)[C@](C)(O)[C@H]2OC(=O)c1ccccc1` were 5.31% and -0.32%.
Regarding `C[n+]1cccc(C(=O)[O-])c1`, the inhibition in assay [1] is -1.47%; in assay [2], -5.02%.
Taken in the same sequence, the figures for `O=c1c(-c2ccc(O)cc2)coc2cc(O[C@@H]3O[C@H](CO)[C@@H](O)[C@H](O)[C@H]3O)ccc12` were 17.6% and -0.76%.
`CC(C)(S)[C@H](N)C(=O)O`: the values for the inhibition in assay [1] and in assay [2] were 11.7% and -6.36%, respectively.
For `C[C@H]1[C@H](C)CC[C@]2(C(=O)O)CC[C@]3(C)C(=CC[C@@H]4[C@@]5(C)CC[C@H](O)C(C)(C)[C@@H]5CC[C@]43C)[C@H]12`, in that order: 16.8% and 5.32%.
For `C[n+]1cc2c3c(ccc2c2ccc4cc5c(cc4c21)OCO5)OCO3`, in that order: 27% and 1.3%.

A word on the inhibition: it is the change of the read-out against control, counted positive when it falls.
